Data as given in the supplement of paper PMC11208160.

Assay: recombinant UMI read abundance after kanamycin selection (control-corrected) (log10(CPM+1)); higher = more efficient recombination; extreme values may be limits of the assay; sequences stand for … in AGTGCAGAGAAAATCGGCCAGTTTTCTCTGCCTGCAGTCCGCATGCCGTGGGACCCCTTGGGTTCTAACCTGTTGCCTAGATTTATGCAGCGGACTGCCTTTCTCCCAAAGTGATAAACCGG…AGGTTGGTTTCACT; site = the 11-nt donor
Description: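 Pooled E. coli donor-specificity screen for the IS621 bridge recombinase. Each library member carries a reprogrammed 11-nt donor and a full-length LE bridge RNA expressed in cis from the natural promoter, with a paired donor-binding loop (8-nt LDG + 4-nt RDG) and a target-binding loop fixed to T5. It is co-electroporated with a T5 target plasmid; recombinase is induced with 0.07 mM IPTG and recombinants are selected on kanamycin. UMIs are counted as CPM, averaged over two biological replicates and corrected by the unselected control. Molecule = full bridge RNA written as DNA, built from the T5 scaffold: LDG = donor specificity nt 1-8, RDG = reverse complement of nt 8-11.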
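Also: IS621 bridge recombinase in Escherichia coli cells against a fixed T5 target plasmid.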

In order of falling “recombinant UMI read abundance (log10)” value:
1. ACAGCTTCATGGACCGGTTTTCCCGGTAATCCGTATTTGGC (site ACAGCTTCTGC)  3.35
2. ACAGGATCATGGACCGGTTTTCCCGGTAATCCGTATTTGAA (site ACAGGATCTTT)  2.93
3. ACAGTATCATGGACCGGTTTTCCCGGTAATCCGTATTTGGA (site ACAGTATCTTC)  2.88
4. ACAGTAACATGGACCGGTTTTCCCGGTAATCCGTATTTGCA (site ACAGTAACTTG)  2.83
5. ACACTATCATGGACCGGTTTTCCCGGTAATCCGTATTTGCG (site ACACTATCTCG)  2.79
6. ACACGGACATGGACCGGTTTTCCCGGTAATCCGTATTTGCT (site ACACGGACTAG)  2.76
7. ACACATACATGGACCGGTTTTCCCGGTAATCCGTATTTGAC (site ACACATACTGT)  2.71
8. ACAGTATCATGGACCGGTTTTCCCGGTAATCCGTATTTGGA (site ACAGTATCTTT)  2.61
9. ACACGAACATGGACCGGTTTTCCCGGTAATCCGTATTTGCC (site ACACGAACTGG)  2.57
10. ACAGTTTCATGGACCGGTTTTCCCGGTAATCCGTATTTGTA (site ACAGTTTCTTA)  2.49
11. ACAGTATCATGGACCGGTTTTCCCGGTAATCCGTATTTGGA (site ACAGTATCTTA)  2.36
12. ACAGTGGCATGGACCGGTTTTCCCGGTAATCCGTATTTGCT (site ACAGTGGCTAG)  2.32
13. ACAGGTGCATGGACCGGTTTTCCCGGTAATCCGTATTTGAT (site ACAGGTGCTAT)  2.2
14. ACAGGTGCATGGACCGGTTTTCCCGGTAATCCGTATTTGAT (site CCAGGTGCTAT)  2.2
15. ACAGTAACATGGACCGGTTTTCCCGGTAATCCGTATTTGGA (site ACAGTAACTTC)  2.19
16. ACAGCATCATGGACCGGTTTTCCCGGTAATCCGTATTTGCA (site ACAGCATCTTG)  2.11
17. ACATCTGCATGGACCGGTTTTCCCGGTAATCCGTATTTGGT (site ACATCTGCTAC)  2.1
18. ACACGAACATGGACCGGTTTTCCCGGTAATCCGTATTTGTT (site ACACGAACTAA)  2.08
19. ACAGTATCATGGACCGGTTTTCCCGGTAATCCGTATTTGGA (site ACAGTATCTTG)  2.02
20. ACACGAACATGGACCGGTTTTCCCGGTAATCCGTATTTGTT (site ACACGAACTGA)  1.96
21. ACACATCCATGGACCGGTTTTCCCGGTAATCCGTATTTGCC (site ACACATCCTGG)  1.79
22. ACAGGTGCATGGACCGGTTTTCCCGGTAATCCGTATTTGAT (site TCAGGTGCTAT)  1.78
23. ACACATACATGGACCGGTTTTCCCGGTAATCCGTATTTGAC (site ACACATGCTGT)  1.74
24. ACAGCATCATGGACCGGTTTTCCCGGTAATCCGTATTTGCA (site ACAGTATCTTG)  1.73
25. ACAGTAACATGGACCGGTTTTCCCGGTAATCCGTATTTGCA (site ACAGTATCTTG)  1.65
26. ACACGAACATGGACCGGTTTTCCCGGTAATCCGTATTTGCC (site ACACGAACTGT)  1.59
27. ACACATCCATGGACCGGTTTTCCCGGTAATCCGTATTTGTC (site ACACATCCTGA)  1.53
28. ACAGGACCATGGACCGGTTTTCCCGGTAATCCGTATTTGCA (site ACAGTATCTTG)  1.52
29. ACATATCCATGGACCGGTTTTCCCGGTAATCCGTATTTGAC (site ACATATCCTGT)  1.43
30. ACAGTAACATGGACCGGTTTTCCCGGTAATCCGTATTTGCA (site ACAGTAGCTTG)  1.39
31. ACATCATCATGGACCGGTTTTCCCGGTAATCCGTATTTGCT (site ACATCATCTAG)  1.39
32. ACACTGGCATGGACCGGTTTTCCCGGTAATCCGTATTTGAG (site ACACTGGCTCT)  1.38
33. ACATCTGCATGGACCGGTTTTCCCGGTAATCCGTATTTGTG (site ACATCTGCTCA)  1.37
34. ACAGTTCCATGGACCGGTTTTCCCGGTAATCCGTATTTGAA (site ACAGTTCCTTT)  1.36
35. ACACGAACATGGACCGGTTTTCCCGGTAATCCGTATTTGTT (site ACACGAACTTA)  1.35
36. ACACGAACATGGACCGGTTTTCCCGGTAATCCGTATTTGCC (site ACACGAACTGA)  1.32
37. ACACATCCATGGACCGGTTTTCCCGGTAATCCGTATTTGCC (site ACACATCCTGA)  1.25
38. ACAGTTTCATGGACCGGTTTTCCCGGTAATCCGTATTTGTA (site ACAGTATCTTG)  1.19
39. ACATCATCATGGACCGGTTTTCCCGGTAATCCGTATTTGCT (site CGATCATCTAG)  1.05
40. ACAGATCCATGGACCGGTTTTCCCGGTAATCCGTATTTGAC (site ACATATCCTGT)  0.985
41. ACATATCCATGGACCGGTTTTCCCGGTAATCCGTATTTGAC (site ACACATCCTGT)  0.817
42. ACAGCATCATGGACCGGTTTTCCCGGTAATCCGTATTTGCA (site ACAGAATCTTG)  0.803
43. ACACCTGCATGGACCGGTTTTCCCGGTAATCCGTATTTGGG (site ACACCTGCTCC)  0.734
44. ACAGATCCATGGACCGGTTTTCCCGGTAATCCGTATTTGAC (site ACAGATCCTGT)  0.651
45. ACAGGTGCATGGACCGGTTTTCCCGGTAATCCGTATTTGAT (site GCAGGTGCTAT)  0.572
46. ACACATACATGGACCGGTTTTCCCGGTAATCCGTATTTGAC (site ACACATTCTGT)  0.554
47. ACATAGACATGGACCGGTTTTCCCGGTAATCCGTATTTGGG (site ACATAGACTCC)  0.469
48. ACACGTACATGGACCGGTTTTCCCGGTAATCCGTATTTGGG (site ACACGTACTCC)  0.42
49. ACATCTGCATGGACCGGTTTTCCCGGTAATCCGTATTTGTG (site ACATCTACTCA)  0.401
50. ACACGAACATGGACCGGTTTTCCCGGTAATCCGTATTTGTT (site ACACGAACTCA)  0.359
51. ACACATCCATGGACCGGTTTTCCCGGTAATCCGTATTTGTC (site ACACATCCTGT)  0.239
52. ACACTCCCATGGACCGGTTTTCCCGGTAATCCGTATTTGCG (site CTGACGACTAC)  0.0266
53. ACATCTGCATGGACCGGTTTTCCCGGTAATCCGTATTTGTG (site ACATCTCCTCA)  0.0207
54. ACATAGACATGGACCGGTTTTCCCGGTAATCCGTATTTGGG (site ACTTAGACTCC)  0.0189
55. ACATAGACATGGACCGGTTTTCCCGGTAATCCGTATTTGGG (site ACCTAGACTCC)  0.0175
56. ACACATCCATGGACCGGTTTTCCCGGTAATCCGTATTTGTC (site ACACATCCTGC)  0.011
57. ACATAGACATGGACCGGTTTTCCCGGTAATCCGTATTTGGG (site ACGTAGACTCC)  0.00831
58. ACACATACATGGACCGGTTTTCCCGGTAATCCGTATTTGAC (site ACACATCCTGT)  0
59. ACACATCCATGGACCGGTTTTCCCGGTAATCCGTATTTGCC (site ACACATCCTGC)  0
60. ACACATCCATGGACCGGTTTTCCCGGTAATCCGTATTTGCC (site ACACATCCTGT)  0
61. ACACATCCATGGACCGGTTTTCCCGGTAATCCGTATTTGTC (site ACACATCCTGG)  0
62. ACACGAACATGGACCGGTTTTCCCGGTAATCCGTATTTGCC (site ACACGAACTGC)  0
63. ACACTATCATGGACCGGTTTTCCCGGTAATCCGTATTTGCG (site ACAGTATCTTG)  0
64. ACAGATCCATGGACCGGTTTTCCCGGTAATCCGTATTTGAC (site ACAAATCCTGT)  0
65. ACAGATCCATGGACCGGTTTTCCCGGTAATCCGTATTTGAC (site ACACATCCTGT)  0
66. ACAGCATCATGGACCGGTTTTCCCGGTAATCCGTATTTGCA (site ACAGGATCTTG)  0
67. ACAGGACCATGGACCGGTTTTCCCGGTAATCCGTATTTGCA (site ACAGGACCTTG)  0
68. ACAGGATCATGGACCGGTTTTCCCGGTAATCCGTATTTGAA (site ACAGTATCTTG)  0
69. ACAGTAACATGGACCGGTTTTCCCGGTAATCCGTATTTGCA (site ACAGTACCTTG)  0
70. ACAGTAACATGGACCGGTTTTCCCGGTAATCCGTATTTGGA (site ACAGTATCTTG)  0
71. ACATATCCATGGACCGGTTTTCCCGGTAATCCGTATTTGAC (site ACAAATCCTGT)  0
72. ACATATCCATGGACCGGTTTTCCCGGTAATCCGTATTTGAC (site ACAGATCCTGT)  0
